Test results from ChEMBL document CHEMBL1123679, “5-Quinone derivatives of 2'-deoxyuridine 5'-phosphate: inhibition and inactivation of thymidylate synthase, antitumor cell, and antiviral studies” (J Med Chem, 1987).
Blank lines part the entries; values can stand above or below the molecule they belong to.

Legend:
[1] = target: T1, Thymidylate synthase (Lactobacillus casei) (UniProt P00469); assay: Kinetic constant for the inactivation of Lactobacillus casei thymidylate synthase was determined at 10 uM concentration using 0 uM of substrate; details: Lacticaseibacillus casei
T1 sequence (whole entry): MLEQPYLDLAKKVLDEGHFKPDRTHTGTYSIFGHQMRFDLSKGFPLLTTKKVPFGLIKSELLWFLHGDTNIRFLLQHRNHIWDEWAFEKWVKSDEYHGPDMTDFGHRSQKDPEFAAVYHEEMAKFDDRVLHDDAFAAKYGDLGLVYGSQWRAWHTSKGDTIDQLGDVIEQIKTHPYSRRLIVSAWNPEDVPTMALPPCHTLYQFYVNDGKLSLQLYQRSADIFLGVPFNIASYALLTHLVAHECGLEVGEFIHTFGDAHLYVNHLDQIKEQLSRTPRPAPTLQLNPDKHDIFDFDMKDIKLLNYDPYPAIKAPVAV

[2] = target: T1, Thymidylate synthase (Lactobacillus casei); details: Lacticaseibacillus casei; 10 uM
[3] = target: T1, Thymidylate synthase (Lactobacillus casei); details: Lacticaseibacillus casei
[4] = target: T1, Thymidylate synthase (Lactobacillus casei); details: Lacticaseibacillus casei; remark: listed apart in the source
[5] = target: T1, Thymidylate synthase (Lactobacillus casei); details: Lacticaseibacillus casei; remark: listed apart in the source
[6] = target: T1, Thymidylate synthase (Lactobacillus casei); details: Lacticaseibacillus casei; remark: listed apart in the source
[7] = target: T1, Thymidylate synthase (Lactobacillus casei); details: Lacticaseibacillus casei; remark: listed apart in the source
[8] = target: T1, Thymidylate synthase (Lactobacillus casei); details: Lacticaseibacillus casei; remark: listed apart in the source
[9] = Apparent second order rate constant determined as the ratio of kinact/Ki
[10] = target: T1, Thymidylate synthase (Lactobacillus casei); details: Lacticaseibacillus casei; remark: listed apart in the source
[11] = target: T1, Thymidylate synthase (Lactobacillus casei); details: Lacticaseibacillus casei; remark: listed apart in the source
[12] = target: T1, Thymidylate synthase (Lactobacillus casei); assay: Kinetic constant for inactivation of Lactobacillus casei thymidylate synthase from double reciprocal plots; details: Lacticaseibacillus casei

SMILES: CC1=C(C)C(=O)C(c2cn([C@H]3C[C@H](O)[C@@H](CO)O3)c(=O)[nH]c2=O)=CC1=O
k obs [1]: 4e-05 s⁻¹

K obs / s [2]: 0.0084
K inact [3]: 0.014 s⁻¹
SMILES: CC1=C(C)C(=O)C(c2cn([C@H]3C[C@H](O)[C@@H](COP(=O)(O)O)O3)c(=O)[nH]c2=O)=C(C)C1=O

SMILES: CC1=C(C)C(=O)C(c2cn([C@H]3C[C@H](O)[C@@H](COP(=O)(O)O)O3)c(=O)[nH]c2=O)=CC1=O
k obs [4]: 0.0066 s⁻¹
k obs [5]: 0.0028 s⁻¹
k obs [6]: 0.0052 s⁻¹
k obs [7]: 0.0092 s⁻¹
k obs [8]: 0.011 s⁻¹
Ratio [9]: 2.5
K inact [3]: 0.015 s⁻¹
k obs [10]: 0.015 s⁻¹
k obs [11]: 0.011 s⁻¹

K inact [12]: 0.065 s⁻¹
Ratio [9]: 3.2
SMILES: O=C1C=CC(=O)C(c2cn([C@H]3C[C@H](O)[C@@H](COP(=O)(O)O)O3)c(=O)[nH]c2=O)=C1
